Entries after “also recorded” stand apart in the source; their conditions may differ.
Tests used:
[1] = target: c-MYC G4 DNA (biotin-labeled Pu22 G-quadruplex); test: Surface plasmon resonance (SPR); assay type: binding; conditions: SPR, 25° C.; read-out: equilibrium dissociation constant (Kd)
Description: In order to quantitatively assess the binding affinity of Compound 1 with the c-MYC G4, surface plasmon resonance (SPR) experiments (De Crescenzo, et al., Cell Mol Bioeng 2008, 1, 204) were performed using a biotinylated c-MYC G4 oligonucleotide. The oligonucleotide was immobilized to a streptavidin-coated chip, and binding was measured as a function of concentration. (FIG. 2). […] Furthermore, Compound 1 interacts with quadruplex DNA through a reversible binding interaction, and rapid, complete dissociation can be observed in the sensogram (FIG. 2C).
SPR experiments were performed with a Biacore T200 (GE Healthcare). […] The c-MYC DNA was then captured (FC2: 1245 Ru) on a Series S Sensor CM5 Chip (GE Healthcare) with amine-coupled Neutravidin (FC1: 4466 Ru, FC2: 5458 Ru). Single Cycle Kinetics (SCK) experiments were carried out with five injections of increasing concentration of analyte solution, which was prepared by a three-fold serial dilution of compound with buffer (10 mM Tris pH 7.5, 100 mM KCl, 3 mM EDTA) containing 3% DMSO. Binding analysis was conducted at a flow rate of 30 μL/min at 25° C. In each run, the association phase and the subsequent dissociation phase were monitored for 1 min and 10 min, respectively. Prior to each compound injection, three buffer injections were made. […]

wild type Pu27 sequence = test: PCR stop assay, wild type sequence; assay type: biochemical; conditions: concentrations comparable to the Kd
[2] = tested on: mutant sequence incapable of G4 formation; assay type: biochemical; conditions: concentrations up to 100 μM
c-Myc transcription = c-Myc transcription in myeloma cells (qPCR); assay type: cell-based, human; conditions: 10 μM, after 24 hours
Description: Since two thirds of multiple myeloma cases involve deregulated c-MYC expression (Kuehl and Bergsagel, Blood 2012, 120, 2351; Shou, et al., Proc Natl Acad Sci USA 2000, 97, 228), we elected to evaluate the cell viability effects of Compound 1 in a multiple myeloma model. […] This suppression was maintained over 72 hours, which is notable given the characteristic rapid replenishment of the protein—a phenomenon that complicates targeting c-Myc at the protein level (FIG. 4C). This effect was maintained across a genetically diverse set of 4 multiple myeloma lines. We observed decreases in c-MYC translation in all lines tested, and this effect also correlated with decreases in viability (FIG. 4D).

[3] = tested on: c-MYC expression in CA46 cells; test: c-MYC expression in CA46 Burkitt's Lymphoma line; assay type: cell-based, human; conditions: CA46 line lacking G4 control
Excerpt: To confirm a G4 specific mechanism of action in cells, the CA46 Burkitt's Lymphoma line was used in an exon-specific assay, as previously reported (Boddupally, et al., J Med Chem 2012, 55, 6076). For most cell lines, 85-90% of c-Myc expression is controlled by the G4 located prior to exons 1 and 2 in the promoter. Furthermore, expression predominantly occurs following exon 2, due to a thousand-fold increase in transcription from this allele (Brown, et al., J Biol Chem 2011, 286, 41018). The CA46 Burkitt's Lymphoma cell line is an exception to this trend due to the existence of a chromosome (8:14) (Pelicci, et al., Proc Natl Acad Sci USA 1986, 83, 2984) translocation between exons 1 and 2, leaving exon 1 under G4 control. As a result, c-Myc expression from exon 2 is G4 independent (FIG. 3B). This renders the overall cell line resistant to G4-mediated c-Myc inhibition at the RNA and protein level, and proliferation should be uninhibited by G4-stabilizing agents. […]
Cell pellets/tissue were homogenized and lysed in RIPA buffer on ice for 1 h. Protein was quantitated by BCA, and equal protein was loaded onto 4-12% Bis-Tris Gels (Novex), electrophoresed at 150 V for 75 min to obtain sufficient separation, and transferred via the iBlot system (Life Technologies). […]

L363 cells = test: Cell cycle analysis (propidium iodide staining); assay type: cell-based, human; conditions: 10 μM, after 72 hours
Description: To further explore the mechanism of action for the anticancer activity of Compound 1, cell cycle analysis was performed and monitored for potential induction of apoptotic death. […] Additionally, minimal increases in apoptosis were observed, by Annexin V/7-AAD staining and FACS analysis; only 13% of the cells were undergoing apoptosis (FIG. 5B).

RB1, BCL2 G4s = test: Biophysical measurements of compound affinity, RB1 and BCL2 G4s; assay type: binding
[4] = tested on: c-MYC expression in L363 xenograft tumors; test: Pharmacodynamic evaluation in L363 subcutaneous xenografts (western blot); assay type: in vivo; conditions: single dose 19 mg/kg or 38 mg/kg IP; tumors harvested 2 and 8 hours; nude mice with L363 xenografts
Description: The capacity of Compound 23 to inhibit c-MYC expression in tumor was evaluated in nude mice bearing subcutaneous xenografts of the human multiple myeloma cell line L363. In this assay, tumors from two tumor-bearing mice were harvested 2 and 8 hours after a single dose of Compound 23 at 19 mg/kg or 38 mg/kg (administered IP).

| Structure (SMILES) | Kd [1] [µM] | inhibition of PCR amplification (wild type Pu27 sequence) | effect on PCR amplification [2] | decrease in c-Myc transcription (c-Myc transcription) | c-MYC expression / protein translation [3] | treated cells arrested in the G1 phase (L363 cells) [%] | G4 binding relative to MYC (RB1, BCL2 G4s) | c-MYC expression levels in tumors compared to vehicle control tumors [4] |
| --- | --- | --- | --- | --- | --- | --- | --- | --- |
| Cc1ccc(NC(=O)c2c(C)oc3ccc(O)c(CN4CCCCCC4)c23)cc1 [Compound 1] | 4.5 ± 1.4 | dose-dependent inhibition | no effect | seven-fold decrease | resistant to inhibition of c-Myc protein translation; also recorded: negligible changes | ~85 | weaker binding |  |
| Cc1oc2ccc(O)c(CN3CCCCCC3)c2c1C(=O)Nc1ccc(C(F)(F)F)cc1 [Compound 23] |  |  |  |  |  |  |  | decreased c-MYC expression levels |

Reference: US11014902B2, “MYC G-quadruplex stabilizing small molecules and their use” (The United States of America, as represented by the …, priority 2015, dated 2021)
